Experimental data reported in US20200393473A1, “EZETIMIBE METABOLITE AS A NON-INVASIVE BIOMARKER FOR NON-ALCOHOLIC STEATOHEPATITIS (NASH)” (ARIZONA BOARD OF REGENTS ON BEHALF OF THE UNIVERSITY OF …, priority 2018, published 2020).

Experiments:
[1] = Disposition of EZE and EZE-Gluc in plasma, bile and urine of control and MCD (NASH) rats, LC-MS/MS; assay type: in vivo, rat; details: NASH animal model (MCD rats) vs control, oral EZE
Experimental: Ezetimibe was orally administered to control and MCD rats. Blood and bile were collected and EZE and ZE-Guc were measured by LC-MS/MS. […] The solid and open arrows indicate where NASH caused an increase and decrease, respectively, in the amount of compound in the biological fluid indicated.
Ezetimibe was intravenously administered to control and MCD rats. Blood and bile were collected and EZE and EZE-Guc were measured by LC-MS/MS. […] The solid arrows indicate where NASH caused an increase in the amount of compound in the biological fluid indicated.

[2] = EZE-Gluc in plasma and urine in NASH compared with healthy or steatotic livers; assay type: in vivo; details: NASH vs healthy or steatotic livers
Experimental: Furthermore, the inventive technical features of the present invention contributed to a surprising result. A surprising and unexpected result can occur when patients are administered EZE.

[3] = normal healthy individuals, 10 mg oral dose of EZE; cited from earlier work

biliary elimination [1]	plasma retention [1]	increase in plasma and urine [2] [fold]	SMILES	average peak blood concentration [3] [ng/mL]
Decreased Biliary Elimination	Increased Plasma Retention	≤ 100	O=C(O)[C@H]1O[C@@H](Oc2ccc([C@@H]3[C@@H](CC[C@H](O)c4ccc(F)cc4)C(=O)N3c3ccc(F)cc3)cc2)[C@H](O)[C@@H](O)[C@@H]1O [EZE-Gluc, ezetimibe-glucuronide]	92
			O=C1[C@H](CC[C@H](O)c2ccc(F)cc2)[C@@H](c2ccc(O)cc2)N1c1ccc(F)cc1 [EZE, ezetimibe]	4.5
